Key:
HCT116 p53–/– = assay: MTS cytotoxicity assay, 72 h, HCT116 p53–/–; format: cell-based; settings: Homo sapiens, HCT-116, 72 h
Summary of the method: (§1)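 Cells were exposed to compounds for 72 h at 50–0.0975 μmol/L (2-fold dilutions), then MTS/phenazine methosulfate was added for 1–4 h. Absorbance read at 490 nm; IC50 derived from concentration-response.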

[1] = system: BJ human skin fibroblasts; assay: MTS cytotoxicity assay, 72 h, BJ fibroblasts; format: cell-based; settings: Homo sapiens, Skin fibroblast, normal fibroblasts
Summary of the method: as §1

[2] = system: K562 (chronic myelogenous leukemia); assay: MTS cytotoxicity assay, 72 h, K562; format: cell-based; settings: Homo sapiens, Table 1
Summary of the method: as §1

Plasma stability = format: in vitro ADME; settings: human plasma
[3] = MDCK-MDR1 permeability assay; format: in vitro ADME; settings: dog, MDCK-MDR1; for Papp A→B: cm/s, read-out: MDCK-MDR1 Papp (×10^−6)
Description: (§2) The Parallel Artificial Membrane Permeability Assay (PAMPA) has emerged as a primary screen for determining passive transcellular permeability. […] The Caco-2 and MDCK-MDR1 permeability assays are established models of intestinal[37] and blood-brain barriers, respectively.[38]

MDR1 = assay: MDCK-MDR1 permeability assay; format: in vitro ADME; settings: dog, MDCK-MDR1; B–A / A–B
Description: as §2

MDCK-MDR1 monolayer = assay: MDCK-MDR1 permeability assay; format: in vitro ADME
Description: as §2

MRC-5 lung fibroblasts = assay: MTS cytotoxicity assay, 72 h, MRC-5 fibroblasts; format: cell-based, human; settings: Homo sapiens, MRC5, 72 h, normal fibroblasts
Summary of the method: as §1

[4] = system: Gli-mediated transcription (U-87 MG-Gli-FLuc reporter); assay: U-87 MG-Gli-FLuc reporter assay; format: cell-based, human; settings: 24 h, 12.5–0.78 μmol/L; compared with GANT-61 at equimolar concentration
Protocol: A possible direct inhibition of the reporter (Fluc) and luminescence itself, which could lead to false positive results, was also ruled out in a cellular as well as a noncellular model (data not shown).
Figure 1 Effect of compounds 11a, 11b, and positive control GANT-61 on Gli1 activation and cell viability measured using the U-87 MG-Gli-FLuc reporter assay. Data are expressed as percentages of control (100%) and represent the mean of three independent experiments with the standard deviation. To distinguish specific inhibition of Gli activation from a nonspecific cellular response, an MTS assay was performed simultaneously under the same conditions in 96-well transparent plates. Statistical analysis of Gli1 activity was performed using one-sample Student’s t-test (mu = 100): *, p < 0.05; **, p < 0.01. The same analysis was used to assess cytotoxicity by MTS assay: #, p < 0.05; ##, p < 0.01.
The U-87 MG-Gli-FLuc reporter cell line was developed from the human glioblastoma line U-87 MG obtained from ATCC and cultured in EMEM medium supplemented with 10% FBS, 1 mmol/L sodium pyruvate, and a 1 mmol/L nonessential amino acid mixture. […] Panels were placed on a shaker to achieve complete cell lysis, and luminescence was measured after 3 min using an EnVision plate reader.

SMILES	IC50 (HCT116 p53–/–; Table 1)	IC50 (HCT116 p53–/–; full Table S1)	IC50 ([1]; Table 1)	IC50 ([1]; full Table S1)	IC50 [2]	Plasma stability % Compound remaining 15 min (Plasma stability)	Plasma stability % Compound remaining 30 min (Plasma stability)	Plasma stability % Compound remaining 60 min (Plasma stability)	recovery [3]	Papp A→B [3]	efflux ratio (MDR1)	MDCK-MDR1 Active efflux (MDCK-MDR1 monolayer)	IC50 (MRC-5 lung fibroblasts; Table 1)	IC50 (MRC-5 lung fibroblasts; full Table S1)	Gli transcriptional activity [4]
C=C(C)[C@@H]1CC[C@]2(C(=O)O)CC[C@]3(C)C(CCC4[C@@]5(C)C=C(c6ccoc6)C(=O)C(C)(C)C5CC[C@]43C)C12 (stereo partly drawn) [Compound 11b, 2-(Furan-3-yl)-3-oxolupa-1,20(29)-dien-28-oic acid]	14 µM	13.5 µM	37 µM	36.6 µM	9.6 µM	103%	104%	103%	94.7%	1.85 ×10⁻⁶ cm/s	2.46	Yes	24 µM	23.9 µM	inhibited Gli transcriptional activity in a dose-response manner
C=C(C)[C@@H]1CC[C@]2(C(=O)O)CC[C@]3(C)C(CCC4[C@@]5(C)C=C(c6ccco6)C(=O)C(C)(C)C5CC[C@]43C)C12 (stereo partly drawn) [Compound 11a, 2-(Furan-2-yl)-3-oxolupa-1,20(29)-dien-28-oic acid]	12 µM	12.4 µM	39 µM	39.1 µM	6.3 µM	103%	100%	95%	90.4%	9.15 ×10⁻⁶ cm/s	1.53	No (less than or very close to the limit of active and passive efflux (≤2))	27 µM	26.8 µM	inhibited Gli transcriptional activity in a dose-response manner

From publication PMC11923649, “Novel C-2 Aromatic Heterocycle-Substituted Triterpenoids Inhibit Hedgehog Signaling in GLI1 Overexpression Cancer Cells” (ACS Omega, 2025)
